The text below walks through data of US20240182503A1, “MACROCYCLE COMPLEMENT FACTOR B INHIBITORS” (priority 2021, published 2024).

For series [1] the following is noted: rcm bond, DCM.
For series [2], the target named is CVF-Bb complex (Homo sapiens (Human), UniProt P00751). Description: biochemical. Format: biochemical. On the procedure: CVF-Bb complex, prepared from purified cobra venom factor, (3 nM) is incubated with a compound of the disclosure at various concentrations for 10 minutes at room temperature in PBS (pH 7.4) containing 10 mM MgCl2 and 0.05% (w/v) CHAPS. Human Complement C3 substrate is added to a final concentration of 1 μM. After 1 hour incubation at room temperature, the enzyme reaction is stopped by addition of a cocktail of concentrated pan-protease inhibitors. The product of the reaction, C3a, is quantified by means of an enzyme-linked-immunosorbent assay and/or denaturing gel electrophoresis (SDS-PAGE). IC50 values are calculated from percentage of inhibition of CVF-Bb activity as a function of test compound concentration.

Like-named read-outs stand apart in the source and are kept apart here.

Take `COC(=O)c1ccc2c3cc(ccc13)OCCCC=CCO[C@@H]1CCN(C(=O)OC(C)(C)C)[C@@H]2C1`: the ring closure, isolated yield in series [1] (from C=CCCCOc1ccc2c(C(=O)OC)ccc([C@H]3C[C@H](OCC=C)CCN3C(=O)OC(C)(C)C)c2c1, 15-membered ring, Grubbs I, 1.96 mM, 25.0 °C, 18.0 h) was found to be 74%.

In the case of `COC(=O)c1ccc2c(c1)OCCC=CCO[C@H]1CCN(C(=O)OC(C)(C)C)[C@H]2C1`, the ring closure, isolated yield in series [1] (from C=CCCOc1cc(C(=O)OC)ccc1[C@@H]1C[C@@H](OCC=C)CCN1C(=O)OC(C)(C)C, 12-membered ring, Grubbs I (20 mol%), 2.22 mM, 25.0 °C, 18.0 h) stood at 61.9%.

Take `COC(=O)c1ccc2c(c1)OCCCC=CCO[C@H]1CCN(C(=O)OC(C)(C)C)[C@H]2C1`: the ring closure, isolated yield in series [1] (from C=CCCCOc1cc(C(=O)OC)ccc1[C@@H]1C[C@@H](OCC=C)CCN1C(=O)OC(C)(C)C, 13-membered ring, Grubbs I (20 mol%), 2.22 mM, 25.0 °C, 18.0 h) turned out to be 68.8%.

As to `C=CCCCOc1cc(Br)ccc1[C@@H]1C[C@@H](O)CCN1C(=O)OCc1ccccc1`, the ring closure, isolated yield in series [1] (the molecule shown is the open-chain precursor, 13-membered ring, Grubbs I (5 mol%), 1.75 mM, 25.0 °C) was determined as 76.4%.

Regarding `CC(C)(C)OC(=O)N1CCC2(O)CC=CCCCCOc3cc(Br)ccc3[C@@H]1C2`, the ring closure, isolated yield in series [1] (from C=CCCCCOc1cc(Br)ccc1[C@@H]1CC(O)(CC=C)CCN1C(=O)OC(C)(C)C, 13-membered ring, Grubbs I, 2.5 mM, 25.0 °C, 48.0 h) was found to be 65.9%.

In general, IC50 refers to the point on the concentration scale where inhibition reaches its midpoint. `COc1cc(C)c2[nH]ccc2c1CN1CC[C@H](OCCNC(C)=O)C[C@H]1c1ccc(C(=O)O)cc1` [Compar. Ex. 1, 4-((2S,4S)-4-(2-acetamidoethoxy)-1-((5-methoxy-7-methyl-1H-indol-4-yl)methyl)piperidin-2-yl)benzoic acid, reference compound]: the IC50 in series [2] stood at 135 nM.

As for `COc1cc(C)c2[nH]ccc2c1CN1CC[C@H]2C[C@H]1c1ccc(C(=O)NS(=O)(=O)C3(C)CC3)cc1OCCCCCCO2` [Ex. 46], in series [2], the IC50 turned out to be 311 nM.

Take `COc1cc(C)c2[nH]ccc2c1CN1CC[C@H]2C[C@H]1c1ccc(C(=O)NS(C)(=O)=O)cc1OCCCCCCO2` [Ex. 33, (1^2S,1^4S)-1^1-((5-methoxy-7-methyl-1H-indol-4-yl)methyl)-N-(methylsulfonyl)-3,10-dioxa-1(2,4)-piperidina-2(1,2)-benzenacyclodecaphane-2^4-carboxamide]: in series [2], the IC50 was 96 nM.

`Cc1cc2c(c3cc[nH]c13)CN1CC[C@@H](C[C@H]1c1ccc(C(=O)O)cc1)OCCCCCCCCO2` [Ex. 35, 4-((3^2R,3^4R)-1^7-methyl-11H-4,13-dioxa-1(4,5)-indola-3(1,4)-piperidinacyclotridecaphane-3^2-yl)benzoic acid]: in series [2], the IC50 is above 10000 nM.

Take `COc1cc(C)c2[nH]ccc2c1CN1CC[C@H]2C[C@H]1c1ccc(C(=O)NS(C)(=O)=O)cc1CCCCCCCO2` [Ex. 71, (1^2S,1^4S)-1^1-((5-methoxy-7-methyl-1H-indol-4-yl)methyl)-N-(methylsulfonyl)-10-oxa-1(2,4)-piperidina-2(1,2)-benzenacyclodecaphane-2^4-carboxamide]: in series [2] (read-out: IC50), the half-maximal inhibitory concentration (IC50) came out at 258 nM.

`COc1cc(C)c2[nH]ccc2c1CN1CC[C@H]2C[C@H]1c1ccc(C(=O)NS(C)(=O)=O)cc1OCCCCCO2` [Ex. 40, (1^2R,1^4R)-1^1-((5-methoxy-7-methyl-1H-indol-4-yl)methyl)-N-(methylsulfonyl)-3,9-dioxa-1(2,4)-piperidina-2(1,2)-benzenacyclononaphane-2^4-carboxamide]: in series [2], the 50% inhibitory concentration (IC50) came to 309 nM.

Turning to `COc1cc(C)c2[nH]ccc2c1CN1CC[C@H]2C[C@H]1c1ccc(C(=O)O)cc1OCCCCCCCO2` [Ex. 7, (1^2S,1^4S)_1^1-((5-methoxy-7-methyl-1H-indol-4-yl)methyl)-3,11-dioxa-1(2,4)-piperidina-2(1,2)-benzenacycloundecaphane-2^4-carboxylic acid], in series [2] (read-out: IC50), the IC50 is 384 nM.

Take `COc1cc(C)c2[nH]ccc2c1CN1CC[C@@H]2CCCCCCCOc3cc(C(=O)O)ccc3[C@@H]1C2` [Ex. 77, (1^2S,1^4S)-1^1-((5-methoxy-7-methyl-1H-indol-4-yl)methyl)-3-oxa-1(2,4)-piperidina-2(1,2)-benzenacyclodecaphane-2^4-carboxylic acid]: the IC50 in series [2] (read-out: IC50) worked out at 85.6 nM.

For `COc1cc(C)c2[nH]ccc2c1CN1CC[C@H]2C[C@H]1c1ccc(C(=O)NO)cc1OCCCCCCO2` [Ex. 63, (1^2S,1^4S)—N-hydroxy-1^1-((5-methoxy-7-methyl-1H-indol-4-yl)methyl)-3,10-dioxa-1(2,4)-piperidina-2(1,2)-benzenacyclodecaphane-2^4-carboxamide], in series [2] (read-out: IC50), the half-maximal inhibitory concentration (IC50) stood at 2450 nM.

On to `Cc1cc2c(c3cc[nH]c13)CN1CC[C@@H](C[C@H]1c1ccc(C(=O)O)cc1)OCCCCCCCCCO2` (racemic) [Ex. 34, rac-4-((3^2R,3^4R)-1^7-methyl-11H-4,14-dioxa-1(4,5)-indola-3(1,4)-piperidinacyclotetradecaphane-3^2-yl)benzoic acid], for which, in series [2], the concentration for half-maximal inhibition (IC50) is above 10000 nM.

Consider `COc1cc(C)c2[nH]ccc2c1CN1CC[C@H]2C[C@H]1c1ccc(C(=O)NS(C)(=O)=O)cc1CCCCCCCCO2` [Ex. 65, (1^2S,1^4S)-1^1-((5-methoxy-7-methyl-1H-indol-4-yl)methyl)-N-(methylsulfonyl)-11-oxa-1(2,4)-piperidina-2(1,2)-benzenacycloundecaphane-2^4-carboxamide], for which, in series [2] (read-out: IC50), the IC50 amounted to 139 nM.

As to `COC(=O)c1ccc2c3cc(ccc13)OCC=CCO[C@H]1CCN(C(=O)OC(C)(C)C)[C@H]2C1`, the ring closure, isolated yield in series [1] (from C=CCOc1ccc2c(C(=O)OC)ccc([C@@H]3C[C@@H](OCC=C)CCN3C(=O)OC(C)(C)C)c2c1, 13-membered ring, Grubbs I, 2.1 mM, 25.0 °C, 18.0 h) worked out at 67.1%.

For `COc1cc(C)c2[nH]ccc2c1CN1CC[C@H]2C[C@H]1c1ccc(C(=O)O)cc1OCC/C=C\CO2` [Ex. 9, (1^2S,1^4S,Z)-1^1-((5-methoxy-7-methyl-1H-indol-4-yl)methyl)-3,9-dioxa-1(2,4)-piperidina-2(1,2)-benzenacyclononaphan-6-ene-2^4-carboxylic acid], the IC50 in series [2] (read-out: IC50) was found to be 342 nM.

In series [2], `COc1cc(C)c2[nH]ccc2c1CN1CC[C@H]2C[C@H]1c1ccc(C(=O)O)cc1/C=C/CCCCCO2` [Ex. 36, (1^2R,1^4R,E)-1^1-((5-methoxy-7-methyl-1H-indol-4-yl)methyl)-10-oxa-1(2,4)-piperidina-2(1,2)-benzenacyclodecaphan-3-ene-2^4-carboxylic acid] gave an IC50 of 241 nM.

On to `COc1cc(C)c2[nH]ccc2c1CN1CC[C@H]2C[C@H]1c1ccc(C(=O)NS(C)(=O)=O)c3ccc(cc13)OCCC/C=C/CO2` [Ex. 54, (1^2S,1^4S,E)-1^1-((5-methoxy-7-methyl-1H-indol-4-yl)methyl)-N-(methylsulfonyl)-3,10-dioxa-1(2,4)-piperidina-2(1,7)-naphthalenacyclodecaphan-7-ene-2^4-carboxamide], for which the IC50 in series [2] (inhibition of CVF-Bb activity (3 nM CVF-Bb, Human Complement C3 substrate 1 μM, C3a quantified), PBS pH 7.4, read-out: IC50) amounted to 303 nM.

`CCO[C@H]1CCN2Cc3c(cc(C)c4[nH]ccc34)OCCCCCCCCOc3cc(C(=O)O)ccc3[C@@H]2C1` [Ex. 30, (19bS,21S)-21-ethoxy-4-methyl-7,8,9,10,11,12,13,14,19b,20,21,22,23,25-tetradecahydro-3H-benzo[7,8]pyrido[1′,2′:5,6][1,9,5]dioxaazacyclo-heptadecino[3,2-e]indole-1^7-carboxylic acid]: the IC50 in series [2] stood at 4910 nM.

Compound `COc1cc(C)c2[nH]ccc2c1CN1CC[C@H]2C[C@H]1c1ccc(C(=O)O)cc1CCCCCCCCO2` [Ex. 41, (1^2R,1^4R)-1^1-((5-methoxy-7-methyl-1H-indol-4-yl)methyl)-11-oxa-1(2,4)-piperidina-2(1,2)-benzenacycloundecaphane-2^4-carboxylic acid] displayed an IC50 in series [2] of 129 nM.

In the case of `COc1cc(C)c2[nH]ccc2c1CN1CCC2CC1c1ccc(C(=O)O)cc1OCCCCCCO2` (centres unmarked) [Ex. 5, (1^2S,1^4S)-11-((5-methoxy-7-methyl-1H-indol-4-yl)methyl)-3,10-dioxa-1(2,4)-piperidina-2(1,2)-benzenacyclodecaphane-2^4-carboxylic acid], the 50% inhibitory concentration (IC50) in series [2] (read-out: IC50) was 262 nM.

As for `COc1cc(C)c2[nH]ccc2c1CN1CC[C@H]2C[C@H]1c1ccc(-c3nnn[nH]3)cc1OCCCCCCO2` [Ex. 74, (1^2S,1^4S)-1^1-((5-methoxy-7-methyl-1H-indol-4-yl)methyl)-2^4-(1H-tetrazol-5-yl)-3,10-dioxa-1(2,4)-piperidina-2(1,2)-benzenacyclodecaphane], the IC50 in series [2] (read-out: IC50) came out at 1250 nM.

On to `COC(=O)c1ccc2c3cc(ccc13)OCCC=CCO[C@H]1CCN(C(=O)OC(C)(C)C)[C@H]2C1`, for which, in series [1] (from C=CCCOc1ccc2c(C(=O)OC)ccc([C@@H]3C[C@@H](OCC=C)CCN3C(=O)OC(C)(C)C)c2c1, 14-membered ring, Grubbs I, 3.2 mM, 16.0 h), the ring closure, isolated yield stood at 33.4%.

Take `COC(=O)c1ccc2c3cc(ccc13)OCCCC=CCO[C@H]1CCN(C(=O)OC(C)(C)C)[C@H]2C1`: the ring closure, isolated yield in series [1] (from C=CCCCOc1ccc2c(C(=O)OC)ccc([C@@H]3C[C@@H](OCC=C)CCN3C(=O)OC(C)(C)C)c2c1, 15-membered ring, Grubbs I, 1.95 mM, 25.0 °C, 18.0 h) is 75.3%; in series [1] (from C=CCCCOc1ccc2c(C(=O)OC)ccc([C@@H]3C[C@@H](OCC=C)CCN3C(=O)OC(C)(C)C)c2c1, 15-membered ring, Grubbs I, 2.0 mM, 25.0 °C, 18.0 h) it was 22.7%.

In the case of `COC(=O)c1ccc2c(c1)OCCCCC=CCO[C@H]1CCN(C(=O)OC(C)(C)C)[C@H]2C1`, the ring closure, isolated yield in series [1] (from C=CCCCCOc1cc(C(=O)OC)ccc1[C@@H]1C[C@@H](OCC=C)CCN1C(=O)OC(C)(C)C, 14-membered ring, Grubbs I (20 mol%), 2.15 mM, 25.0 °C, 18.0 h) was determined as 72.4%; in series [1] (from C=CCCCCOc1cc(C(=O)OC)ccc1[C@@H]1C[C@@H](OCC=C)CCN1C(=O)OC(C)(C)C, 14-membered ring, Grubbs I (20 mol%), 2.17 mM, 25.0 °C, 18.0 h), 83.2%.
